In general, IC50 refers to the concentration that inhibits the measured activity by half.

Experiment [1] concerns the target T1, Beta-secretase 1 (Homo sapiens, UniProt P56817). The experiment in a line: Inhibition of BACE1.
In experiment [2] the target is T1, Beta-secretase 1. Kind of experiment: Inhibition of human BACE1 expressed in mouse fibroblast cells assessed as inhibition of secreted APPbeta-NF production at pH 7.2. The format is cell-based.

T1 sequence (P56817 whole entry): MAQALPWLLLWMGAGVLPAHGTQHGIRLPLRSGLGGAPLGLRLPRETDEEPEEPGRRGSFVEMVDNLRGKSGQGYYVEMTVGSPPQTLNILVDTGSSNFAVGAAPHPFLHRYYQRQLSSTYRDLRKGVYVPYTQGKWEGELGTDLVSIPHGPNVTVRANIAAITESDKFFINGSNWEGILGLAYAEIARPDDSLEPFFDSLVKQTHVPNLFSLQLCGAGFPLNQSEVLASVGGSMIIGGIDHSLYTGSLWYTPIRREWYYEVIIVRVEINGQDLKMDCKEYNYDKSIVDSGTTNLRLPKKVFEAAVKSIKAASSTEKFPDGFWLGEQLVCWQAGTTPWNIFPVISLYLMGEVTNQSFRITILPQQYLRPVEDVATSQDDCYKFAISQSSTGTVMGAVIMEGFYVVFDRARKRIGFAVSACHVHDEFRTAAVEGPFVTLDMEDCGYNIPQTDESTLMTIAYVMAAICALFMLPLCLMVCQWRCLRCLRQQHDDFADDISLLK

As to `C[C@@H](NC(=O)c1cc(COCC(N)(CF)Cc2ccccc2)cc(N(C)S(C)(=O)=O)c1)c1ccc(F)cc1` (mixture of isomers), the IC50 was determined as 0.997 µM against Beta-secretase 1 [1] and 0.432 µM at Beta-secretase 1 [2].

On to `C[C@@H](NC(=O)c1cc(-c2ncc([C@](C)(N)Cc3ccccc3)o2)cc(N(C)S(C)(=O)=O)c1)c1ccc(F)cc1`, for which the IC50 at Beta-secretase 1 [1] was determined as 0.007 µM; on Beta-secretase 1 [2] it was 0.005 µM.

For `C[C@@H](NC(=O)c1cc(COC(=O)C(C)(N)Cc2ccccc2)cc(N(C)S(C)(=O)=O)c1)c1ccc(F)cc1` (some centres undefined), the IC50 against Beta-secretase 1 [1] came to 0.019 µM; at Beta-secretase 1 [2] it was 0.163 µM.

Consider `COCC(N)(COCc1cc(C(=O)N[C@H](C)c2ccc(F)cc2)cc(N(C)S(C)(=O)=O)c1)Cc1ccccc1` (mixture of isomers), for which, on Beta-secretase 1 [1], the IC50 is more than 100 µM.

The compound `C[C@@H](NC(=O)c1cc(N(C)S(C)(=O)=O)cc(-n2cc([C@](C)(N)Cc3ccccc3)nn2)c1)c1ccc(F)cc1` had an IC50 at Beta-secretase 1 [1] of 16.3 µM.

Regarding `C[C@@H](NC(=O)c1cc(-c2nc([C@](C)(N)Cc3ccccc3)no2)cc(N(C)S(C)(=O)=O)c1)c1ccc(F)cc1`, inhibition on Beta-secretase 1 [1] was half-maximal at 1.83 µM (IC50).

Take `C[C@@H](NC(=O)c1cc(COC(=O)C(N)(CO)Cc2ccccc2)cc(N(C)S(C)(=O)=O)c1)c1ccc(F)cc1` (some centres undefined): the IC50 against Beta-secretase 1 [1] was 0.31 µM; on Beta-secretase 1 [2], 0.684 µM.

`C[C@@H](NC(=O)c1cc(NCCC(N)(CO)Cc2ccccc2)cc(N(C)S(C)(=O)=O)c1)c1ccc(F)cc1` (some centres undefined): the IC50 on Beta-secretase 1 [1] was more than 100 µM.

`C[C@@H](NC(=O)c1cc(COC[C@](C)(N)Cc2ccccc2)cc(N(C)S(C)(=O)=O)c1)c1ccc(F)cc1`: the IC50 was found to be 0.344 µM against Beta-secretase 1 [1] and 0.138 µM on Beta-secretase 1 [2].

As to `C[C@@H](NC(=O)c1cc(N(C)S(C)(=O)=O)cc(S(=O)(=O)CCC(N)(CO)Cc2ccccc2)c1)c1ccc(F)cc1` (some centres undefined), on Beta-secretase 1 [1], the IC50 was more than 100 µM.

For `C[C@@H](NC(=O)c1cc(-c2ccc(C(C)(N)Cc3ccccc3)o2)cc(N(C)S(C)(=O)=O)c1)c1ccc(F)cc1` (mixture of isomers), the IC50 on Beta-secretase 1 [1] stood at 0.02 µM; at Beta-secretase 1 [2], 0.004 µM.

On to `C[C@@H](NC(=O)c1cc(OCCC(N)(CO)Cc2ccccc2)cc(N(C)S(C)(=O)=O)c1)c1ccc(F)cc1` (some centres undefined), for which the IC50 against Beta-secretase 1 [1] came out at 70.5 µM.

On to `C[C@@H](NC(=O)c1cc(C(=O)NCC(N)(CO)Cc2ccccc2)cc(N(C)S(C)(=O)=O)c1)c1ccc(F)cc1` (some centres undefined), for which, on Beta-secretase 1 [1], the IC50 came to 10.8 µM.

In turn, `C[C@@H](NC(=O)c1cc(-c2noc([C@](C)(N)Cc3ccccc3)n2)cc(N(C)S(C)(=O)=O)c1)c1ccc(F)cc1` yielded an IC50 at Beta-secretase 1 [1] of 2.06 µM.

At Beta-secretase 1 [1], `C[C@@H](NC(=O)c1cc(C(=O)NCC(O)(CO)Cc2ccccc2)cc(N(C)S(C)(=O)=O)c1)c1ccc(F)cc1` (some centres undefined) registered an IC50 of 24.9 µM.

For the compound `C[C@@H](NC(=O)c1cc(CNC(=O)C(N)(CO)Cc2ccccc2)cc(N(C)S(C)(=O)=O)c1)c1ccc(F)cc1` (some centres undefined), the IC50 at Beta-secretase 1 [1] was determined as 18.1 µM.

On Beta-secretase 1 [1], `C[C@@H](NC(=O)c1cc(C(=O)OCC(O)(CN)Cc2ccccc2)cc(N(C)S(C)(=O)=O)c1)c1ccc(F)cc1` (some centres undefined) came in with an IC50 of 22.2 µM.

The compound `C[C@@H](NC(=O)c1cc(CNC(=O)C(C)(N)Cc2ccccc2)cc(N(C)S(C)(=O)=O)c1)c1ccc(F)cc1` (some centres undefined) registered an IC50 against Beta-secretase 1 [1] of 5.72 µM.

For the compound `C[C@@H](NC(=O)c1cc(-c2nnc([C@](C)(N)Cc3ccccc3)s2)cc(N(C)S(C)(=O)=O)c1)c1ccc(F)cc1`, the IC50 against Beta-secretase 1 [1] stood at 29.9 µM.

For the compound `C[C@@H](NC(=O)c1cc(CCC[C@](N)(CO)Cc2ccccc2)cc(N(C)S(C)(=O)=O)c1)c1ccc(F)cc1`, the IC50 on Beta-secretase 1 [1] came to 22.4 µM.

Turning to `C[C@@H](NC(=O)c1cc(-c2n[nH]c([C@](C)(N)Cc3ccccc3)n2)cc(N(C)S(C)(=O)=O)c1)c1ccc(F)cc1`, the IC50 came out at 0.822 µM against Beta-secretase 1 [1] and 4.74 µM at Beta-secretase 1 [2].

Compound `CNC(CO)(COC(=O)c1cc(C(=O)N[C@H](C)c2ccc(F)cc2)cc(N(C)S(C)(=O)=O)c1)Cc1ccccc1` (some centres undefined) came in with an IC50 against Beta-secretase 1 [1] of more than 100 µM.

In the case of `C[C@@H](NC(=O)c1cc(COCC(N)(Cc2ccccc2)C(F)F)cc(N(C)S(C)(=O)=O)c1)c1ccc(F)cc1` (mixture of isomers), the concentration for half-maximal inhibition (IC50) against Beta-secretase 1 [1] is 0.925 µM; at Beta-secretase 1 [2] it was more than 20 µM.

In the case of `C[C@@H](NC(=O)c1cc(COC[C@](N)(CO)Cc2ccccc2)cc(N(C)S(C)(=O)=O)c1)c1ccc(F)cc1`, the IC50 at Beta-secretase 1 [1] is 1.37 µM; at Beta-secretase 1 [2] it was 0.58 µM.

On to `C[C@@H](NC(=O)c1cc(CNC[C@](N)(CO)Cc2ccccc2)cc(N(C)S(C)(=O)=O)c1)c1ccc(F)cc1`, for which the IC50 at Beta-secretase 1 [1] turned out to be 10.1 µM; on Beta-secretase 1 [2] it was 3.47 µM.

For `C[C@@H](NC(=O)c1cc(COC[C@H](N)Cc2ccccc2)cc(N(C)S(C)(=O)=O)c1)c1ccc(F)cc1`, the IC50 was determined as 10.1 µM against Beta-secretase 1 [1] and 1.71 µM at Beta-secretase 1 [2].

`C[C@@H](NC(=O)c1cc(SCCC(N)(CO)Cc2ccccc2)cc(N(C)S(C)(=O)=O)c1)c1ccc(F)cc1` (some centres undefined) returned an IC50 against Beta-secretase 1 [1] of more than 100 µM.

`CCC(N)(COCc1cc(C(=O)N[C@H](C)c2ccc(F)cc2)cc(N(C)S(C)(=O)=O)c1)Cc1ccccc1` (mixture of isomers) yielded an IC50 against Beta-secretase 1 [1] of 22 µM.

(Values after ChEMBL document CHEMBL1155422, “SAR of tertiary carbinamine derived BACE1 inhibitors: role of aspartate ligand amine pKa in enzyme inhibition” (Bioorg Med Chem Lett, 2010).)
